Source: patent US20260242365A1, “USES OF CERTAIN 1,4-OXAZEPANE-2-CARBOXAMIDES AS DPP1 INHIBITORS” (Insmed Incorporated, priority 2023, published 2026)

Target: T1, mouse DPP1 (Mus musculus, UniProt P97821)
T1 construct: Test articles were applied to active mouse DPP1 enzyme; purchased R&D Systems
Experiment: Mouse DPP1 Enzyme IC50 Assay
Type: biochemical
Details: active mouse DPP1 enzyme, H-Gly-Arg-AMC substrate
Description: Test articles were applied to active mouse DPP1 enzyme (R&D Systems; Minneapolis, MN) in Assay Buffer (50 mM MES pH 5.5, 50 mM NaCl, 5 mM DTT) in a total reaction volume of 125 μL. 25 μL of compound in Assay Buffer plus 5% DMSO was first added to 50 μL of active mouse DPP1 enzyme at a concentration of […] and allowed to pre-incubate for 10 minutes at 37° C. after which 50 μL of 1000 μM H-Gly-Arg-AMC substrate (Bachem; St. Torrance, CA) was added, giving final substrate concentration of 400 μM and a final DMSO concentration of 1%. Substrate cleavage was measured for 90 minutes at 37° C., with fluorescence at Excitation/Emission 350/450 nm measured every 5 minutes. DPP1 concentration was interpolated based on its activity relative to a standard curve of recombinant active mouse DPP1 enzyme. IC50 values for each compound were calculated via the XLFit (IDBS Version 5.3.1.3) Add-On to Microsoft Excel using the four parameter fit equation y= (A+ ((B−A)/(1+ ((C/x)^D)))), which appears as equation number 205 (4 Parameter Logistic Model or Sigmoidal Dose-Response Model) in XLFit. Default constraints were used for each Parameter. IC50 was defined as the compound concentration at which 50% of enzyme activity was inhibited when compared to the no-compound control.

T1 sequence (P97821 25-134 limits assumed): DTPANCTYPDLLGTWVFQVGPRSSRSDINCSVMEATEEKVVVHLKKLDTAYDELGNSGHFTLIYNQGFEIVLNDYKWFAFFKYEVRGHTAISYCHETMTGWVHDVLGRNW
T1 sequence (P97821 231-393 limits assumed): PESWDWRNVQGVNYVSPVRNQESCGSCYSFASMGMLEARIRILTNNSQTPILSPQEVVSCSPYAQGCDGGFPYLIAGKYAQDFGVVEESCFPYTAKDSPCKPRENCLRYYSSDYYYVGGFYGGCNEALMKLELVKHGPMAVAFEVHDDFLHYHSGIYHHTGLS
T1 sequence (P97821 394-462 limits assumed): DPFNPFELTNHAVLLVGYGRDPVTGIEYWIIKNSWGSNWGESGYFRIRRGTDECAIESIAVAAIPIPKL

IC50: 5.6 ± 0.4 nM
SMILES: Cn1c(=O)oc2ccc(-c3ccc(C[C@@H](C#N)NC(=O)[C@@H]4CNCCCO4)c(F)c3)cc21 [INSM-204]
